For the assay, the system named is P388 leukemia ip, CD2F1 mice, survival T/C. In words: NCI In Vivo Anticancer Drug Screen. Data for tumor model P388 Leukemia (intraperitoneal) in CD2F1 (CDF1) mice. As to conditions: endpoint: median survival time, higher = longer survival. Put shortly: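 Mice carrying the transplanted tumor received test compound or vehicle. Survival was recorded in each group, and the value is the treated-group measurement divided by that of the vehicle-treated control group.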

The mark [1] stands for this setting: dose: 12.5 mg/kg/injection, schedule: Q01DX001 (ip), vehicle: saline with Tween-80.
The mark [2] stands for this setting: dose: 25.0 mg/kg/injection, schedule: Q01DX001 (ip), vehicle: saline with Tween-80.
[3] abbreviates: dose: 50.0 mg/kg/injection, schedule: Q01DX005 (ip), vehicle: Klucel (hydroxypropylcellulose) (HPC).
Where [4] appears, read: dose: 100.0 mg/kg/injection, schedule: Q01DX005 (ip), vehicle: Klucel (hydroxypropylcellulose) (HPC).
[5] abbreviates: dose: 200.0 mg/kg/injection, schedule: Q01DX005 (ip), vehicle: Klucel (hydroxypropylcellulose) (HPC).
Where [6] appears, read: dose: 25.0 mg/kg/injection, schedule: Q01DX005 (ip), vehicle: Klucel (hydroxypropylcellulose) (HPC).
Where [7] appears, read: dose: 100.0 mg/kg/injection, schedule: Q01DX009 (ip), vehicle: saline.

The structures appear in SMILES notation. Values joined by “and” are separate entries in the source; they are usually repeats but may differ in a detail not shown here. Equal values may be shown once. Inconclusive results and toxic doses are left out. Peptide text beside a SMILES is read from it. * marks the point of attachment. Boc = CC(C)(C)OC(=O)*; OtBu = CC(C)(C)O*; NHNH2 = NN*

For `COc1cccc2c1C(=O)c1c(O)c3c(c(O)c1C2=O)CC(O)(C(C)=O)CC3OC1CC(N)C(OC2CC(N)C(O)C(C)O2)C(C)O1` (stereo unspecified), the T/C was 116 % of control (dose: 0.39 mg/kg/injection, schedule: Q01DX009 (ip), vehicle: water); 150 % of control (dose: 1.56 mg/kg/injection, schedule: Q01DX009 (ip), vehicle: water); 161 % of control and 196 % of control (dose: 3.13 mg/kg/injection, schedule: Q01DX009 (ip), vehicle: water); 112 % of control (dose: 3.13 mg/kg/injection, schedule: Q04DX003 (ip), vehicle: water); 113 % of control and 116 % of control (dose: 6.25 mg/kg/injection, schedule: Q01DX009 (ip), vehicle: water); 103 % of control (dose: 6.25 mg/kg/injection, schedule: Q04DX003 (ip), vehicle: water). For the same molecule, the T/C (dose: 12.5 mg/kg/injection, schedule: Q01DX009 (ip), vehicle: water) is 114 % of control and 86 % of control; the T/C (dose: 12.5 mg/kg/injection, schedule: Q04DX003 (ip), vehicle: water) is 103 % of control; the T/C (dose: 25.0 mg/kg/injection, schedule: Q04DX003 (ip), vehicle: water) is 121 % of control; the T/C (dose: 50.0 mg/kg/injection, schedule: Q04DX003 (ip), vehicle: water) was 112 % of control.
For the molecule `CCC(C)C(NC(=O)CNC(=O)OC(C)(C)C)C(=O)NC(C(=O)NC(CCC(=O)OC(C)(C)C)C(=O)NN)C(C)C` (stereo unspecified) (Boc-GIVE(OtBu)-NHNH2; configuration not given here), the T/C is, setting by setting: (dose: 6.25 mg/kg/injection, schedule: Q01DX001 (ip), vehicle: saline with Tween-80) 100 % of control; under setting [1], 100 % of control; under setting [2], 95 % of control.
On to `CC1=CC(=C2C(=O)c3ccccc3C2=O)C=C(C)N1CC#CCN1CCCCC1`, for which the T/C is, setting by setting: under setting [3], 108 % of control; under setting [4], 98 % of control; under setting [5], 88 % of control; (dose: 240.0 mg/kg/injection, schedule: Q01DX005 (ip), vehicle: Klucel (hydroxypropylcellulose) (HPC)) 90 % of control.
Turning to `[N-]=[N+]=CC(=O)C1(c2ccccc2)OC1c1ccc([N+](=O)[O-])cc1` (stereo unspecified), the T/C runs as follows: under setting [1], 94 % of control; under setting [2], 93 % of control; (dose: 50.0 mg/kg/injection, schedule: Q01DX001 (ip), vehicle: saline with Tween-80) 86 % of control and 95 % of control.
Consider `O=NN(c1cccc(C(F)(F)F)c1)c1ccccn1`, for which the T/C was 100 % of control (dose: 25.0 mg/kg/injection, schedule: Q01DX009 (ip), vehicle: other); 108 % of control (dose: 50.0 mg/kg/injection, schedule: Q01DX009 (ip), vehicle: other); 106 % of control (dose: 100.0 mg/kg/injection, schedule: Q01DX009 (ip), vehicle: other); 104 % of control (dose: 200.0 mg/kg/injection, schedule: Q01DX009 (ip), vehicle: other); 108 % of control (dose: 400.0 mg/kg/injection, schedule: Q01DX009 (ip), vehicle: other).
For `CC(=O)Nc1ccc(Cl)cc1C(O)c1ccccc1` (stereo unspecified), the T/C was 89 % of control (dose: 12.5 mg/kg/injection, schedule: Q01DX005 (ip), vehicle: Klucel (hydroxypropylcellulose) (HPC)); 91 % of control under setting [6]; 98 % of control and 99 % of control under setting [3].
For `COc1ccc(CCN)c(OC)c1OC`, the T/C runs as follows: (dose: 50.0 mg/kg/injection, schedule: Q01DX009 (ip), vehicle: saline) 105 % of control and 107 % of control; under setting [7], 104 % of control and 110 % of control.
In the case of `Cc1cc(=O)c2ccc(Br)cc2[nH]1`, the T/C (dose: 50.0 mg/kg/injection, schedule: Q01DX005 (ip), vehicle: saline with Tween-80) was 100 % of control; the T/C (dose: 100.0 mg/kg/injection, schedule: Q01DX005 (ip), vehicle: saline with Tween-80) is 97 % of control; the T/C (dose: 200.0 mg/kg/injection, schedule: Q01DX005 (ip), vehicle: saline with Tween-80) was 100 % of control.
`COc1ccc(S(=O)(=O)c2cnc(N/N=C/c3ccc([N+](=O)[O-])o3)nc2N)cc1`: the T/C is 93 % of control (dose: 100.0 mg/kg/injection, schedule: Q01DX001 (ip), vehicle: saline); 90 % of control (dose: 200.0 mg/kg/injection, schedule: Q01DX001 (ip), vehicle: saline); 90 % of control (dose: 400.0 mg/kg/injection, schedule: Q01DX001 (ip), vehicle: saline).
Take `Cc1cc(=O)c2cc3c(cc2[nH]1)OCO3`: the T/C is 106 % of control under setting [3], 100 % of control under setting [4] and 100 % of control under setting [5].
As for `O=C(O)C(CS(=O)(=O)O)Nc1ncnc2nc[nH]c12` (stereo unspecified), the T/C is 100 % of control under setting [7]; 100 % of control (dose: 200.0 mg/kg/injection, schedule: Q01DX009 (ip), vehicle: saline); 109 % of control (dose: 400.0 mg/kg/injection, schedule: Q01DX009 (ip), vehicle: saline).
Consider `O=C1N(c2ccccc2)N=C2CCCCCCCCCCC12O` (stereo unspecified), for which the T/C reads like this: under setting [3], 93 % of control; under setting [4], 97 % of control; under setting [5], 94 % of control.
`COC(=O)[C@]12C(=O)C=CC(=O)C1CC=CC2C(OC(C)=O)C(COC(C)=O)OC(C)=O` (stereo partly specified): the T/C by setting is: (dose: 100.0 mg/kg/injection, schedule: Q01DX001 (ip), vehicle: saline with Tween-80) 103 % of control; (dose: 200.0 mg/kg/injection, schedule: Q01DX001 (ip), vehicle: saline with Tween-80) 100 % of control; (dose: 400.0 mg/kg/injection, schedule: Q01DX001 (ip), vehicle: saline with Tween-80) 103 % of control.
As for `COc1cc(C=NC2CCCCC2)c(Br)c(OC)c1OC`, the T/C reads like this: (dose: 100.0 mg/kg/injection, schedule: Q01DX001 (ip), vehicle: Klucel (hydroxypropylcellulose) (HPC)) 107 % of control; (dose: 200.0 mg/kg/injection, schedule: Q01DX001 (ip), vehicle: Klucel (hydroxypropylcellulose) (HPC)) 107 % of control; (dose: 400.0 mg/kg/injection, schedule: Q01DX001 (ip), vehicle: Klucel (hydroxypropylcellulose) (HPC)) 107 % of control.
With `O=C(O)c1ccccc1-c1c2cc(Br)c(=O)cc-2oc2[c]([Hg])c(O)c(Br)cc12`, the T/C (dose: 6.25 mg/kg/injection, schedule: Q01DX005 (ip), vehicle: saline) was 106 % of control; the T/C (dose: 12.5 mg/kg/injection, schedule: Q01DX005 (ip), vehicle: saline) was 109 % of control; the T/C (dose: 25.0 mg/kg/injection, schedule: Q01DX005 (ip), vehicle: saline) is 107 % of control.
For the molecule `CC(=O)C(CO)C(=O)Nc1ccccc1` (stereo unspecified), the T/C (dose: 50.0 mg/kg/injection, schedule: Q01DX009 (ip), vehicle: saline with Tween-80) is 100 % of control; the T/C (dose: 100.0 mg/kg/injection, schedule: Q01DX009 (ip), vehicle: saline with Tween-80) was 95 % of control; the T/C (dose: 200.0 mg/kg/injection, schedule: Q01DX009 (ip), vehicle: saline with Tween-80) is 95 % of control.
Consider `CCc1c2oc(C(=O)c3ccc(Cl)cc3)cc2n2ccccc12`, for which the T/C is 89 % of control (dose: 60.0 mg/kg/injection, schedule: Q01DX005 (ip), vehicle: Klucel + Tween-80) and 86 % of control (dose: 120.0 mg/kg/injection, schedule: Q01DX005 (ip), vehicle: Klucel + Tween-80).
As to `[S-]c1n[n+](-c2ccccc2)no1`, the T/C (dose: 6.25 mg/kg/injection, schedule: Q01DX009 (ip), vehicle: distilled water + Tween-80) is 102 % of control and the T/C (dose: 12.5 mg/kg/injection, schedule: Q01DX009 (ip), vehicle: distilled water + Tween-80) was 88 % of control.
Turning to `O=C(O)C(Cc1ccccc1)NC(c1ccc(Cl)cc1)P(=O)(O)O` (stereo unspecified), the T/C by setting is: (dose: 60.0 mg/kg/injection, schedule: Q01DX005 (ip), vehicle: saline with Tween-80) 98 % of control; (dose: 120.0 mg/kg/injection, schedule: Q01DX005 (ip), vehicle: saline with Tween-80) 105 % of control; (dose: 240.0 mg/kg/injection, schedule: Q01DX005 (ip), vehicle: saline with Tween-80) 97 % of control.
As for `COC(=O)C1(CC(=O)c2cccs2)NC(=S)NC(=O)C1C#N` (stereo unspecified), the T/C runs as follows: (dose: 60.0 mg/kg/injection, schedule: Q01DX005 (ip), vehicle: saline) 98 % of control; (dose: 120.0 mg/kg/injection, schedule: Q01DX005 (ip), vehicle: saline) 100 % of control; (dose: 240.0 mg/kg/injection, schedule: Q01DX005 (ip), vehicle: saline) 94 % of control.
With `c1ccc(CCn2c(-c3ccncc3)nc3ccccc32)nc1`, the T/C is 109 % of control under setting [6], 104 % of control under setting [3], 107 % of control under setting [4] and 105 % of control under setting [5].

The record behind these values is PubChem BioAssay AID330 (DTP/NCI, 2004).
